Where a name gives a salt, the structure may show the parent alone.
Biological target: T1, vanilloid receptor (Rattus norvegicus, UniProt O35433)
T1 construct: DRG nerve cells from the primary culture of 2 days were equilibrated; endogenous in cells; host or cells: primary culture of dorsal root ganglion neurons from neonatal SD rats
Assay: 45Ca influx test in cultured neonatal rat DRG neurons, inhibition of capsaicin response
Format: cell-based
Details: neonatal rat DRG neurons, capsaicin 0.5 μM, 45Ca influx; read-out: Antagonist Calcium Uptake Test (IC50)
How it was run: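 Neonatal SD rat DRG neurons, cultured 2 days with NGF (200 ng/ml) and Ara-C, were washed in HEPES (10 mM, pH 7.4)-buffered Ca/Mg-free HBSS. Test compound was added with capsaicin (final 0.5 μM) and 45Ca (10 μCi/ml) for 10 min at room temperature; 45Ca uptake counted by scintillation after SDS elution.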

T1 sequence (O35433 whole entry): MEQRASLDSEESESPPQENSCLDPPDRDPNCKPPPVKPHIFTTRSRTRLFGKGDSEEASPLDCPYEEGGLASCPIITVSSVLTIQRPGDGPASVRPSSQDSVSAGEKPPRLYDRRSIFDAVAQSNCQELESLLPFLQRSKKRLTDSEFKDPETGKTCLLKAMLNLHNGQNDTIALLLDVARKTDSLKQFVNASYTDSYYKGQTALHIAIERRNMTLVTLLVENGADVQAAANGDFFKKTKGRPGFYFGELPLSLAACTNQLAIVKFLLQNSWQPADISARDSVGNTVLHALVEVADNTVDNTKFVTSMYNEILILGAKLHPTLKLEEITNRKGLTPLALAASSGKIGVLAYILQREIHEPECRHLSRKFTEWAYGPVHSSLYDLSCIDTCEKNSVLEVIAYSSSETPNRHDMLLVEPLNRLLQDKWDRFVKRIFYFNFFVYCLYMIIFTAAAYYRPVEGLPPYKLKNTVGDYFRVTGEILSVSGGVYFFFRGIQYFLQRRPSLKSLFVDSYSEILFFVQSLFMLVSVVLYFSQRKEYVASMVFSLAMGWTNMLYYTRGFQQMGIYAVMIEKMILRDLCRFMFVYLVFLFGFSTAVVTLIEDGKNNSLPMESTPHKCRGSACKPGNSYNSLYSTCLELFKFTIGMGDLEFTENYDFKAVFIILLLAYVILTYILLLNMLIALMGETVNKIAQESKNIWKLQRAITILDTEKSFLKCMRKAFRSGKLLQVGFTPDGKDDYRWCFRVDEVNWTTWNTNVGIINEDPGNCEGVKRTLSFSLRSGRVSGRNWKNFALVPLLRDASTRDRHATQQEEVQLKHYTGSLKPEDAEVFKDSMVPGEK

Structure (SMILES) | IC50 [nM]
CCCc1nc(C(F)(F)F)ccc1/C=C/C(=O)NCc1ccc(NS(C)(=O)=O)cc1Cl [Example 251, N-(2-Chloro-4-methanesulfonylamino-benzyl)-3-(2-propyl-6-trifluoromethyl-pyridin-3-yl)-acrylamide] | 700
C=CS(=O)(=O)Nc1ccc(CNC(=O)/C=C/c2ccc(C(F)(F)F)nc2NC(C)C)cc1 [Example 267, N-(4-Ethenesulfonylamino-benzyl)-3-(2-isopropylamino-6-trifluoromethyl-pyridin-3-yl)-acrylamide] | 450
C#Cc1cc(CNC(=O)COc2ccc(C(C)(C)C)nc2)cc(F)c1NS(C)(=O)=O [Examples 34] | > 10000
C#Cc1cc(CNC(=O)/C=C/c2ccc(C(F)(F)F)nc2N2CCC[C@H]2CO)cc(F)c1NS(C)(=O)=O (stereo in doubt) [Example 83, N-(3-Ethynyl-5-fluoro-4-methansulfonylamino-benzyl)-3-[2-(2-hydroxymethyl-pyrrolidin-1-yl)-6-trifluoromethyl-pyridin-3-yl]-acrylamide] | 2100
Cc1cc(CNC(=O)/C=C/c2ccc(C(F)(F)F)nc2N2CCCCC2)ccc1NS(C)(=O)=O [Example 184, N-(4-Methanesulfonylamino-3-methyl-benzyl)-3-(2-piperid-1-yl-6-trifluoromethyl-pyridin-3-yl)-acrylamide] | 230
C[C@@H](NC(=O)/C=C/c1ccc(C(F)(F)F)nc1N1CCCCC1)c1cc(F)c(NS(C)(=O)=O)c(F)c1 [Example 239, (R)—N-[1-(3,5-Difluoro-4-methanesulfonylamino-phenyl)-ethyl]-3-(2-piperid-1-yl-6-trifluoromethyl-pyridin-3-yl)-acrylamide] | 120
C#Cc1cc(CNC(=O)/C=C/c2ccc(C(F)(F)F)nc2N(CC)CC)cc(F)c1NS(C)(=O)=O [Example 38, 3-(2-Diethylamino-6-trifluoromethyl-pyridin-3-yl)-N-(3-ethynyl-5-fluoro-4-methanesulfonylamino-benzyl)-acrylamide] | 220
CS(=O)(=O)Nc1ccc(CNC(=O)/C=C/c2ccc(C(F)(F)F)nc2OCc2ccccc2)cc1F [Example 112, 3-(2-Benzyloxy-6-trifluoromethyl-pyridin-3-yl)-N-(3-fluoro-4-methanesulfonylamino-benzyl)-acrylamide] | 1400
COc1nc(C(F)(F)F)ccc1/C=C/C(=O)NCc1ccc(NS(C)(=O)=O)c(F)c1 [Example 60, N-(3-Fluoro-4-methanesulfonylamino-benzyl)-3-(2-methoxy-6-trifluoromethyl-pyridin-3-yl)-acrylamide] | 2100
CCNc1nc(C(F)(F)F)ccc1/C=C/C(=O)NCc1ccc(NS(C)(=O)=O)c(C)c1 [Example 247, N-(4-methanesulfonylamino-3-methyl-benzyl)-3-(2-ethylamino-6-trifluoromethyl)-pyridin-3-yl-acrylamide] | 13
C#Cc1cc(CNC(=O)/C=C/c2ccc(C(C)(C)C)nc2N2CCOCC2)cc(F)c1NS(C)(=O)=O [Example 59, 3-(6-tert-Butyl-2-morpholin-4-yl-pyridin-3-yl)-N-(3-ethynyl-5-fluoro-4-methanesulfonylamino-benzyl)-acrylamide] | 210
CCC(C)Cc1nc(C(F)(F)F)ccc1/C=C/C(=O)NCc1ccc(NS(C)(=O)=O)c(F)c1 (stereo not shown) [Example 151, N-(3-Fluoro-4-methanesulfonylamino-benzyl)-3-[2-(2-methyl-butyl)-6-trifluoromethyl-pyridin-3-yl]-acrylamide] | 150
CCOC(=O)C1CCCN(c2nc(C(F)(F)F)ccc2/C=C/C(=O)NCc2cc(F)c(NS(C)(=O)=O)c(C#N)c2)C1 (stereo not shown) [Example 115, N-(3-Cyano-5-fluoro-4-methansulfonylamino-benzyl)-3-[2-(3-ethoxycarbonyl-piperid-1-yl)-6-trifluoromethyl-pyridin-3-yl]-acrylamide] | 470
C#Cc1cc(CNC(=O)/C=C/c2ccc(Br)nc2)cc(F)c1NS(C)(=O)=O [Example 15, 3-(6-Bromo-pyridin-3-yl)-N-(3-ethynyl-5-fluoro-4-methanesulfonylamino-benzyl)-acrylamide] | 5900
C#Cc1cc(CNC(=O)/C=C/c2ccc(C(F)(F)F)nc2C#CCOC)cc(F)c1NS(C)(=O)=O [Example 153, N-(3-Ethynyl-5-fluoro-4-methanesulfonylamino-benzyl)-3-[2-(3-methoxy-prop-1-ynyl)-6-trifluoromethyl-pyridin-3-yl]-acrylamide] | 1100
COCCNc1nc(C(F)(F)F)ccc1/C=C/C(=O)NCc1cc(F)c(NS(C)(=O)=O)c(C#N)c1 [Example 101, N-(3-Cyano-5-fluoro-4-methanesulfonylamino-benzyl)-3-[2-(2-methoxy-ethylamino)-6-trifluoromethyl-pyridin-3-yl]-acrylamide] | 840
C#Cc1cc(CNC(=O)/C=C/c2ccc(C(F)(F)F)nc2NC(C)CC)cc(F)c1NS(C)(=O)=O (stereo not shown) [Example 117, 3-(2-sec-Butylamino-6-trifluoromethyl-pyridin-3-yl)-N-(3-ethynyl-5-fluoro-4-methanesulfonylamino-benzyl)-acrylamide] | 77
C#Cc1cc(CNC(=O)/C=C/c2ccc(C(F)(F)F)nc2OCC2CC2)cc(F)c1NS(C)(=O)=O [Example 93, 3-(2-Cyclopropylmethoxy-6-trifluoromethyl-pyridin-3-yl)-N-(3-ethynyl-5-fluoro-4-methanesulfonylamino-benzyl)-acrylamide] | 360
C#Cc1cc(CNC(=O)/C=C/c2ccc(C(F)(F)F)nc2N(C)CCC)cc(F)c1NS(C)(=O)=O [Example 159, N-(3-Ethynyl-5-fluoro-4-methanesulfonylamino-benzyl)-3-[2-(N-methyl-N-propyl-amino)-6-trifluoromethyl-pyridin-3-yl]-acrylamide] | 270
C#Cc1cc(CNC(=O)/C=C/c2ccc(C(F)(F)F)nc2Cl)cc(F)c1NS(C)(=O)=O [Example 40, 3-(2-Chloro-6-trifluoromethyl-pyridin-3-yl)-N-(3-ethynyl-5-fluoro-4-methanesulfonylamino-benzyl)-acrylamide] | 980
CS(=O)(=O)Nc1c(F)cc(CNC(=O)/C=C/c2ccc(C(F)(F)F)nc2CCc2ccccc2)cc1F [Example 203, N-(3,5-Difluoro-4-methanesulfonylamino-benzyl)-3-(2-phenethyl-6-trifluoromethyl-pyridin-3-yl)-acrylamide] | 120
C#Cc1cc(CNC(=O)/C=C/c2ccc(C(F)(F)F)nc2N2CCC(OC)C2)cc(F)c1NS(C)(=O)=O (stereo not shown) [Example 85] | 180
CS(=O)(=O)Nc1ccc(CNC(=O)/C=C/c2ccc(C(F)(F)F)nc2N2CCOCC2)cc1F [Example 5, N-(3-Fluoro-4-methanesulfonylamino-benzyl)-3-(2-morpholin-4-yl-6-trifluoromethyl-pyridin-3-yl)-acrylamide] | 1500
COc1nc(C(C)(C)C)ccc1/C=C/C(=O)NCc1ccc(NS(C)(=O)=O)c(F)c1 [Examples 9] | 400
C#Cc1cc(CNC(=O)/C=C/c2ccc(C(F)(F)F)nc2N2CCNCC2)cc(F)c1NS(C)(=O)=O [Example 116, N-(3-Ethynyl-5-fluoro-4-methanesulfonylamino-benzyl)-3-(2-piperaz-1-yl-6-trifluoromethyl-pyridin-3-yl)-acrylamide, HCl salt] | 4500

— patent publication US7858621B2 (Amorepacific Corporation, priority 2006, dated 2010)
